According to EP4667465A1, “SALT OF BENZO-NITROGEN HETEROAROMATIC RING DERIVATIVE, CRYSTALLINE FORM, AND PHARMACEUTICAL USE THEREOF” (Haisco Pharmaceutical Group Co., Ltd., priority 2023, dated 2024):

Key:
[1] = Stability of the crystalline form (purity under accelerated, intermediate and long-term storage); format: physicochemical
[2] = Hygroscopicity (sorption isotherm curve); format: physicochemical; settings: at 80% RH
From the text: According to the description of the hygroscopicity characteristics and the definition of hygroscopic weight gain in the Chinese Pharmacopoeia 2020 Edition, Volume IV, General Chapter 9103: Guidelines for Hygroscopicity Trials for Pharmaceuticals, • deliquescence: absorbing enough moisture to form a liquid; • extremely hygroscopic: a hygroscopic weight gain of not less than 15%; • hygroscopic: a hygroscopic weight gain of less than 15% but no less than 2%; • slightly hygroscopic: a hygroscopic weight gain of less than 2% but no less than 0.2%; and • non-hygroscopic or practically non-hygroscopic: a hygroscopic weight gain of less than 0.2%.

[3] = Pharmacokinetic test in rats; format: in vivo, SD rats
Method: Experimental objective: in this experiment, a single dose of the test substance was administered to SD rats intravenously and intragastrically, and the concentration of the test substance in plasma of the rats was measured to evaluate the pharmacokinetic characteristics of the test substance in the rats. Experimental animals: male SD rats, 200-250 g, 6-8 weeks old, 6 rats/compound, purchased from Chengdu Dossy Experimental Animals Co., Ltd. Experimental method: on the day of the experiment, 6 SD rats were randomly grouped according to their body weights. […] Sampling: before and after the administration, 0.15 mL of blood was taken from the orbits under isoflurane anesthesia and placed in an EDTAK2 centrifuge tube. Centrifugation was carried out at 5000 rpm at 4°C for 10 min, and the plasma was collected. The plasma collection time points for IV&PO groups were 0, 5 min, 15 min, 30 min, 1 h, 2 h, 4 h, 6 h, 8 h, and 24 h. Before analysis and detection, all samples were stored at -60°C. The samples were analyzed quantitatively by LC-MS/MS.

[4] = Pharmacokinetic test in monkeys; format: in vivo, cynomolgus monkeys; settings: compared with the trifluoroacetate of LNP023, in words
Method: Experimental objective: in this experiment, a single dose of test substance was administered to cynomolgus monkeys intravenously and intragastrically, and the concentration of the test substance in plasma of the monkeys was measured to evaluate the pharmacokinetic characteristics of the test substance in the monkeys.
Experimental animals: male cynomolgus monkeys, 3-5 kg, 3-6 years old, 6 monkeys/compound, purchased from Suzhou Xishan Biotechnology Co., Ltd.
Experimental method: on the day of the experiment, 6 monkeys were randomly grouped according to their body weights. The cynomolgus monkeys were fasted with water available for 14-18 h one day before the administration, and were fed 4 h after the administration.
Sampling: before and after the administration, 1.0 mL of blood was taken from the limb veins and placed in an EDTAK2 centrifuge tube. Centrifugation was carried out at 5000 rpm at 4°C for 10 min, and the plasma was collected.
The plasma collection time points for IV&PO groups were 0, 5 min, 15 min, 30 min, 1 h, 2 h, 4 h, 6 h, 8 h, 10 h, 12 h, and 24 h.
Before analysis and detection, all samples were stored at -60°C. The samples were analyzed quantitatively by LC-MS/MS.

Caco-2 cells = settings: Caco2, compared with the trifluoroacetate of LNP023; in words
Method: (§1) In the experiment, a monolayer of Caco-2 cells was used, and incubated in triplicate in a 96-well Transwell plate. A transport buffer solution (HBSS, 10 mM HEPES, pH 7.4 ± 0.05) containing the compound of the present invention (2 µM) or the control compound digoxin (10 µM), nadolol (2 µM) or metoprolol (2 µM) was added to the administration end hole on the apical side or basal side. A DMSO-containing transport buffer solution was added to the corresponding receiving end hole. After incubation for 2 hours at 37°C ± 1°C, the cell plate was removed, and an appropriate amount of samples was taken from both the apical side and basal side and transferred to a new 96-well plate. Subsequently, acetonitrile containing an internal standard was added to precipitate the protein. The samples were analyzed using LC MS/MS, and the concentrations of the compound of the present invention and the control compound were determined. Concentration data were used to calculate apparent permeability coefficients for transport from the apical side to the basal side, and from the basal side to the apical side of the cell monolayer, and thus to calculate the efflux ratio. The integrity of the cell monolayer after 2 hours of incubation was evaluated by leakage of Lucifer Yellow.

in vitro = settings: human, Caco-2, pH 7.4
Method: as §1

complement factor B = complement factor B (Homo sapiens, UniProt P00751); settings: in words; disclosed in PCT/CN 2022/113216; cited from earlier work
C3a level = settings: in words; disclosed in PCT/CN 2022/113216; cited from earlier work
[5] = male, rat, po, SD rats, plasma, i.g. (10 mg/kg)
[6] = in rats, compared with LNP023, in words

Sequence of complement factor B (P00751 26-764): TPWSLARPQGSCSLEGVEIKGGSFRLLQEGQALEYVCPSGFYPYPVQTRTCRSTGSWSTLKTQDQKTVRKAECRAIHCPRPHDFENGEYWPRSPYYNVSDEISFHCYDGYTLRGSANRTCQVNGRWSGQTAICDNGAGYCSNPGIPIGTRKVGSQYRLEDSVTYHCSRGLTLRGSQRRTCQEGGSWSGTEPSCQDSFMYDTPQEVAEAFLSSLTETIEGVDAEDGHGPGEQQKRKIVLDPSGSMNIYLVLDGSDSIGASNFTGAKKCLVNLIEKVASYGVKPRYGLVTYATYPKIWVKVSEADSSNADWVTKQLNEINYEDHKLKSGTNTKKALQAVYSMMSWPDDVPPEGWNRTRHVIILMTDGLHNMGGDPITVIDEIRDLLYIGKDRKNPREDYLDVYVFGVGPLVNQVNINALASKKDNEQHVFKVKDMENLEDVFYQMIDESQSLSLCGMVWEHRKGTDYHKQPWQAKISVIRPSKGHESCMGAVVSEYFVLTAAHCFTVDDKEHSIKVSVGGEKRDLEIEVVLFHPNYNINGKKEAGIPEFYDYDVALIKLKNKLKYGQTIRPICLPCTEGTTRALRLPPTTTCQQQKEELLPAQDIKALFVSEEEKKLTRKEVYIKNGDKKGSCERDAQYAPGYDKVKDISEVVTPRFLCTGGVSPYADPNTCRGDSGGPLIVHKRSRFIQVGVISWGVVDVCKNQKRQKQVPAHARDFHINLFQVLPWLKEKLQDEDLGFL

## [2H]C([2H])([2H])Oc1cc(C)c2[nH]ccc2c1CN1CC[C@@H](C2CC2)C[C@H]1c1ccc(C(=O)O)cc1 [4-((2S,4R)-4-cyclopropyl-1-((5-(methoxy-d3)-7-methyl-1H-indol-4-yl)methyl)piperidin-2-yl)benzoic acid]
[1]; 0 day
  Purity: 97.80%
[1]; Accelerated: 40°C ± 2°C, 75% ± 5% RH, 1 month
  Purity: 97.70%
[1]; Accelerated: 40°C ± 2°C, 75% ± 5% RH, 2 months
  Purity: 97.70%
[1]; Accelerated: 40°C ± 2°C, 75% ± 5% RH, 3 months
  Purity: 97.90%
[1]; Accelerated: 40°C ± 2°C, 75% ± 5% RH, 6 months
  Purity: 97.80%
[1]; Intermediate: 25°C ± 2°C, 60% ± 5% RH, 3 months
  Purity: 98.00%
[1]; Intermediate: 25°C ± 2°C, 60% ± 5% RH, 6 months
  Purity: 97.80%
[1]; Long-term: 2°C - 8°C, 3 months
  Purity: 97.90%
[1]; Long-term: 2°C - 8°C, 6 months
  Purity: 97.70%
[1]; under accelerated, intermediate and long-term conditions, conclusion in words
  stability: good stability
[2]
  hygroscopic weight gain: about 1.15%

## CCO[C@H]1CCN(Cc2c(OC)cc(C)c3[nH]ccc23)[C@H](c2ccc(C(=O)O)cc2)C1 [LNP023]
[3]; male, rat, plasma, po, SD rats, i.g. (10 mg/kg)
  bioavailability: 49%
[3]; [5]
  Cmax: 867 ng/mL
  Tmax: 3.5 h
  half-life: 203 min
[3]; male, rat, po, SD rats, plasma, i.g. (10 mg/kg), read-out: AUC0-24h
  AUC(0-t): 9870 ng·h/mL

## [2H]C([2H])([2H])Oc1cc(C)c2[nH]ccc2c1CN1CC[C@@H](C2CC2)C[C@H]1c1ccc(C(=O)O)cc1 [Trifluoroacetate of compound 1, 4-((2S,4R)-4-cyclopropyl-1-((5-(methoxy-d3)-7-methyl-1H-indol-4-yl)methyl)piperidin-2-yl)benzoic acid]
[3]; [6]
  maximum plasma concentration: higher
  oral bioavailability: higher
[4]
  bioavailability: higher
  oral exposure: higher
Caco-2 cells
  permeability: better
In vitro
  Papp A→B at 2 h, 2 µM: 1.77 ×10⁻⁶ cm/s
  Papp B→A at 2 h, 2 µM: 19.4 ×10⁻⁶ cm/s

## [2H]C([2H])([2H])Oc1cc(C)c2[nH]ccc2c1CN1CC[C@@H](C2CC2)C[C@H]1c1ccc(C(=O)O)cc1 [compound 1, 4-((2S,4R)-4-cyclopropyl-1-((5-(methoxy-d3)-7-methyl-1H-indol-4-yl)methyl)piperidin-2-yl)benzoic acid]
Complement factor B
  inhibitory activity against complement factor B: good
C3a level
  inhibition rate of C3a level in vivo: good
